Test results: patent US20260014119A1, “EMOPAMIL-BINDING PROTEIN INHIBITORS AND USES THEREOF” (BIOGEN MA INC., priority 2022, published 2026)

molecular target: T1, EBP (Homo sapiens, UniProt Q15125); experiment: EBP Functional Assay (EBP immunoaffinity LC-MS assay); format: biochemical; settings: EBP enzyme from HEK293T cells; 30 min with inhibitor, then zymosterol-d5 at 37° C. for 4 h; percent conversion by LC-APCI MRM MS
T1 construct: HEK293T cells were utilized as the source of EBP enzyme; endogenous in cells; host or cells: HEK293T
Procedure: The EBP immunoaffinity (IA) LC-MS assay measures the potency of small molecule inhibitors of EBP by quantifying their concentration-dependent changes in the enzyme's substrate and product using liquid chromatography atmospheric pressure chemical ionization multiple reaction monitoring mass spectrometry (LC-APCI MRM MS). HEK293T cells were utilized as the source of EBP enzyme. The enzyme was incubated with the small molecule inhibitors at variable concentrations for 30 min. Deuterated form of EBP substrate, zymosterol-d5 (Avanti Polar Lipids, Cat #700068P-1 mg), was then added and the plate was incubated at 37° C. for 4 h. Finally, the sterol isomers were extracted and injected to LC-APCI MRM MS. MRM transition used for the quantification for both zymosterol and […] (substrate and product of EBP enzymatic reaction, respectively) is 372.3-203.2, CE 30 and DP 80 in positive ion mode. Percent conversion of the zymosterol-d5 to dehydrolathosterol-d5 was used to derive IC50 curves. Tasin-1 (1′-[(4-Methoxyphenyl)sulfonyl]-4-methyl-1,4′-bipiperidine, CAS 792927-06-1) was used as the reference small molecule inhibitor.
Percent conversion versus the compound concentration data were fit to the following 4-parameter logistic model to generate IC50 curves: […]

T1 sequence (Q15125 whole entry): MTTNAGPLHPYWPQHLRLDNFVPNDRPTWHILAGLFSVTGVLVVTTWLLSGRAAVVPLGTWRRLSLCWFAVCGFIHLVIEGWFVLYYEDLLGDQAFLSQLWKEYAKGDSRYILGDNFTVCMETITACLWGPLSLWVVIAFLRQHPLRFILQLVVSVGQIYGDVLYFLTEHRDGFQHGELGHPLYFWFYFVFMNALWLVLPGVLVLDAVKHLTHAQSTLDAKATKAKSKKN

Compared with Cc1nc(C(F)(F)F)ccc1S(=O)(=O)N1C[C@H]2CN(C3CC4(COC4)C3)C[C@@H]2C1 (racemic) [Example 50, Rac-(3aR,6aR)-2-((2-methyl-6-(trifluoromethyl)pyridin-3-yl)sulfonyl)-5-(2-oxaspiro[3.3]heptan-6-yl)octahydropyrrolo[3,4-c]pyrrole], Cc1nc(C(F)(F)F)ncc1S(=O)(=O)N1C[C@H]2CN(C3CC4(COC4)C3)C[C@@H]2C1 (racemic) [Example 58, Rac-(3aR,6aR)-2-((4-methyl-2-(trifluoromethyl)pyrimidin-5-yl)sulfonyl)-5-(2-oxaspiro[3.3]heptan-6-yl)octahydropyrrolo[3,4-c]pyrrole] is higher in IC50: < 100 nM for the first, 100 to 500 nM for the second.

First: Cc1nc(C(F)(F)F)ccc1S(=O)(=O)N1C[C@H]2CN(CC3CCOCC3)C[C@@H]2C1 (racemic) [Example 51, Rac-(3aR,6aR)-2-((2-methyl-6-(trifluoromethyl)pyridin-3-yl)sulfonyl)-5-((tetrahydro-2H-pyran-4-yl)methyl)octahydropyrrolo[3,4-c]pyrrole]
Second: Cc1nc(C(F)(F)F)ccc1S(=O)(=O)N1C[C@H]2CN(CC3COC3)C[C@@H]2C1 (racemic) [Example 52, Rac-(3aR,6aR)-2-((2-methyl-6-(trifluoromethyl)pyridin-3-yl)sulfonyl)-5-(oxetan-3-ylmethyl)octahydropyrrolo[3,4-c]pyrrole]
The IC50 of the first is lower: < 100 nM for the first, > 500 nM for the second.

Cc1nc(C(F)(F)F)ccc1S(=O)(=O)N1C[C@H]2CN(CC34CCOC(C)(C3)C4)C[C@@H]2C1 (racemic) [Example 53, Rac-(3aR,6aR)-2-((1-methyl-2-oxabicyclo[3.1.1]heptan-5-yl)methyl)-5-((2-methyl-6-(trifluoromethyl)pyridin-3-yl)sulfonyl)octahydropyrrolo[3,4-c]pyrrole] and Cc1nc(C(F)(F)F)ccc1S(=O)(=O)N1C[C@H]2CN(CC34COC(C)(C3)C4)C[C@@H]2C1 (racemic) [Example 54] fall in the same range of IC50: 100 to 500 nM for the first, 100 to 500 nM for the second.

Cc1nc(C(F)(F)F)ncc1S(=O)(=O)N1C[C@H]2CN(C3CCOCC3)C[C@@H]2C1 (racemic) [Example 57, Rac-(3aR,6aR)-2-((4-methyl-2-(trifluoromethyl)pyrimidin-5-yl)sulfonyl)-5-(tetrahydro-2H-pyran-4-yl)octahydropyrrolo[3,4-c]pyrrole] and Cc1nc(C(F)(F)F)ccc1S(=O)(=O)N1C[C@@H]2CN(C3CCOCC3)C[C@H]2C1 (single isomer, unassigned) [Example 47] fall in the same range of IC50: 100 to 500 nM for the first, 100 to 500 nM for the second.

Cc1nc(C(F)(F)F)ncc1S(=O)(=O)N1C[C@H]2CN(CC3CCOCC3)C[C@@H]2C1 (racemic) [Example 59, Rac-(3aR,6aR)-2-((4-methyl-2-(trifluoromethyl)pyrimidin-5-yl)sulfonyl)-5-((tetrahydro-2H-pyran-4-yl)methyl)octahydropyrrolo[3,4-c]pyrrole] and Cc1nc(C(F)(F)F)ccc1S(=O)(=O)N1C[C@H]2CN(C3CCOCC3)C[C@@H]2C1 (single isomer, unassigned) [Example 48] fall in the same range of IC50: 100 to 500 nM for the first, 100 to 500 nM for the second.

Cc1nc(C(F)(F)F)ccc1S(=O)(=O)N1C[C@@H]2CN(CC34COC(C)(C3)C4)C[C@H]2C1 (single isomer, unassigned) [Example 55] and Cc1nc(C(F)(F)F)ccc1S(=O)(=O)N1C[C@H]2CN(CC34COC(C)(C3)C4)C[C@@H]2C1 (single isomer, unassigned) [Example 56] fall in the same range of IC50: 100 to 500 nM for the first, 100 to 500 nM for the second.

For Cc1ccc(S(=O)(=O)N2C[C@H]3C[C@@H](NCC4CCOCC4)C[C@H]3C2)c(C)c1 [Example 1, (3aR,5r,6aS)-2-((2,4-Dimethylphenyl)sulfonyl)-N-((tetrahydro-2H-pyran-4-yl)methyl)octahydrocyclopenta[c]pyrrol-5-amine], the IC50 was < 100 nM.
